Consider 26 molecules from US9034921B2, “Diphenylmethane derivatives as SGLT2 inhibitors” (GREEN CROSS CORPORATION, priority 2011, dated 2015).

This assay has as its target human SGLT2 (Homo sapiens (Human), UniProt P31639). The assay is described as follows: Inhibitory effects on human SGLT2 activities (14C-AMG uptake, sodium-dependent glucose transport assay). Type of assay: cell-based. The note with it: CHO cells stably expressing hSGLT2, 37° C., 2 h, single determinations. The method, boiled down:
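CHO cells stably expressing hSGLT2 were preincubated 10 min at 37 °C in choline (Na+-free) buffer, then exposed 2 h at 37 °C to compound in Na+ uptake buffer with 8 μM 14C-AMG and 1 mM unlabeled AMG. Radioactivity was scintillation counted; IC50 came from nonlinear regression.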

Broadly, the pIC50 is the IC50 on a negative log10 scale, so that one unit is a factor of ten. Lower therefore signals a high IC50.

pIC50: −log10 of the molar value.

Sequence of human SGLT2 (P31639 whole entry): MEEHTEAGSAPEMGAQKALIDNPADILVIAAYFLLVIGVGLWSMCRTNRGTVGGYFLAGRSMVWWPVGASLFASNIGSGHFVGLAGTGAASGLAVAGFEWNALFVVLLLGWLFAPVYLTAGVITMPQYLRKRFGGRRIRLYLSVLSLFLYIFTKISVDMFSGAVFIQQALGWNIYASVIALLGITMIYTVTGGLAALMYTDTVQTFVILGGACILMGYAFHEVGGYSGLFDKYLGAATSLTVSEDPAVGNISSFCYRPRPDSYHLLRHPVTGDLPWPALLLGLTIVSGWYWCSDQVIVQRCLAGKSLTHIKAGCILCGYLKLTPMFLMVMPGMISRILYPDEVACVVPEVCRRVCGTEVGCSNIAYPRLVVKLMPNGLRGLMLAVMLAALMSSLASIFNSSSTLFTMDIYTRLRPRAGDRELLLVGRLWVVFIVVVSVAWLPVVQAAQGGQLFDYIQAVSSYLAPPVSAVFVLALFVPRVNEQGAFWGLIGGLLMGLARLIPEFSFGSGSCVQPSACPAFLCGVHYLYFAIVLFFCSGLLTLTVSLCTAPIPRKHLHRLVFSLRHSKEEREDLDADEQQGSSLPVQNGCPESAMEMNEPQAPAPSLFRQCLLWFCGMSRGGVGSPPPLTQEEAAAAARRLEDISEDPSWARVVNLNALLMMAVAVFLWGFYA

Turning to `N#Cc1ccc(Cc2cc([C@@H]3O[C@H](CO)[C@@H](O)[C@H](O)[C@H]3O)c3c(c2Cl)OCC3)cc1` [Example E186, 4-((7-Chloro-4-((2S,3R,4R,5S,6R)-3,4,5-trihydroxy-6-(hydroxymethyl)tetrahydro-2H-pyran-2-yl)-2,3-dihydrobenzofuran-6-yl)methyl)benzonitrile], the pIC50 is 8.22. For `CCCc1ccc(Cc2cc([C@@H]3O[C@H](CO)[C@@H](O)[C@H](O)[C@H]3O)c3c(c2Cl)OCC3)cc1` [Example E187, (2S,3R,4R,5S,6R)-2-(7-Chloro-6-(4-propylbenzyl)-2,3-dihydrobenzofuran-4-yl)-6-(hydroxymethyl)tetrahydro-2H-pyran-3,4,5-triol] the value was 8.93. Turning to `CN(C)c1ccc(Cc2cc([C@@H]3O[C@H](CO)[C@@H](O)[C@H](O)[C@H]3O)c3c(c2Cl)OCC3)cc1` [Example E190, (2S,3R,4R,5S,6R)-2-(7-Chloro-6-(4-(dimethylamino)benzyl)-2,3-dihydrobenzofuran-4-yl)-6-(hydroxymethyl)tetrahydro-2H-pyran-3,4,5-triol], the pIC50 is 8.95.

As to `OC[C@H]1O[C@@H](c2cc(Cc3ccc4c(c3)OCCO4)c(Cl)c3c2OCC3)[C@H](O)[C@@H](O)[C@@H]1O` [Example E191, (2S,3R,4R,5S,6R)-2-(4-Chloro-5-((2,3-dihydrobenzo[b][1,4]dioxin-6-yl)methyl)-2,3-dihydrobenzofuran-7-yl)-6-(hydroxymethyl)tetrahydro-2H-pyran-3,4,5-triol], the pIC50 is 8.80. For `OC[C@H]1O[C@@H](c2cc(Cc3ccc(O)cc3)c(Cl)c3c2CCO3)[C@H](O)[C@@H](O)[C@@H]1O` [Example E192, (2S,3R,4R,5S,6R)-2-(7-Chloro-6-(4-hydroxybenzyl)-2,3-dihydrobenzofuran-4-yl)-6-(hydroxymethyl)tetrahydro-2H-pyran-3,4,5-triol] the value was 8.79. As for `OCCCOc1ccc(Cc2cc([C@@H]3O[C@H](CO)[C@@H](O)[C@H](O)[C@H]3O)c3c(c2Cl)OCC3)cc1` [Example E193, (2S,3R,4R,5S,6R)-2-(7-Chloro-6-(4-(3-hydroxypropoxy)benzyl)-2,3-dihydrobenzofuran-4-yl)-6-(hydroxymethyl)tetrahydro-2H-pyran-3,4,5-triol], the pIC50 is 8.73. For `CCCOc1ccc(Cc2cc([C@@H]3O[C@H](CO)[C@@H](O)[C@H](O)[C@H]3O)c3c(c2Cl)OCC3)cc1` [Example E194, (2S,3R,4R,5S,6R)-2-(7-Chloro-6-(4-propoxybenzyl)-2,3-dihydrobenzofuran-4-yl)-6-(hydroxymethyl)tetrahydro-2H-pyran-3,4,5-triol] the value was 8.91; for `COc1ccc(Cc2cc([C@@H]3O[C@H](CO)[C@@H](O)[C@H](O)[C@H]3O)c3c(c2Cl)C(=O)CO3)cc1` [Example E195, 4-Chloro-5-(4-methoxybenzyl)-7-((2S,3R,4R,5S,6R)-3,4,5-trihydroxy-6-(hydroxymethyl)tetrahydro-2H-pyran-2-yl)benzofuran-3(2H)-one], 7.45; for `COc1ccc(Cc2cc([C@@H]3O[C@H](CO)[C@@H](O)[C@H](O)[C@H]3O)c3c(c2Cl)C(O)CO3)cc1` (stereo partly drawn) [Example E196, (2S,3R,4R,5S,6R)-2-(4-Chloro-3-hydroxy-5-(4-methoxybenzyl)-2,3-dihydrobenzofuran-7-yl)-6-(hydroxymethyl)tetrahydro-2H-pyran-3,4,5-triol], 8.45. For `CN(C)c1ccc(Cc2cc([C@@H]3O[C@H](CO)[C@@H](O)[C@H](O)[C@H]3O)c3c(c2Cl)CCO3)cc1` [Example E197, (2S,3R,4R,5S,6R)-2-(4-Chloro-5-(4-(dimethylamino)benzyl)-2,3-dihydrobenzofuran-7-yl)-6-(hydroxymethyl)tetrahydro-2H-pyran-3,4,5-triol] the value was 8.49; for `OC[C@H]1O[C@@H](c2cc(Cc3ccc(OCCOC4CC4)cc3)c(Cl)c3c2CCO3)[C@H](O)[C@@H](O)[C@@H]1O` [Example E198, (2S,3R,4R,5S,6R)-2-(7-Chloro-6-(4-(2-cyclopropoxyethoxy)benzyl)-2,3-dihydrobenzofuran-4-yl)-6-(hydroxymethyl)tetrahydro-2H-pyran-3,4,5-triol], 8.69; for `OC[C@H]1O[C@@H](c2cc(Cc3ccc(OC(F)(F)F)cc3)c(Cl)c3c2CCO3)[C@H](O)[C@@H](O)[C@@H]1O` [Example E200, (2S,3R,4R,5S,6R)-2-(7-Chloro-6-(4-(trifluoromethoxy)benzyl)-2,3-dihydrobenzofuran-4-yl)-6-(hydroxymethyl)tetrahydro-2H-pyran-3,4,5-triol], 8.97. For `COc1ccc(Cc2cc([C@@H]3O[C@H](CO)[C@@H](O)[C@H](O)[C@H]3O)c3oc(C)c(OC)c3c2Cl)cc1` [Example E201, (2S,3R,4R,5S,6R)-2-(4-Chloro-3-methoxy-5-(4-methoxybenzyl)-2-methylbenzofuran-7-yl)-6-(hydroxymethyl)tetrahydro-2H-pyran-3,4,5-triol] the value was 7.31; for `COc1ccc(Cc2cc([C@@H]3O[C@H](CO)[C@@H](O)[C@H](O)[C@H]3O)c3occ(OC)c3c2Cl)cc1` [Example E202, (2S,3R,4R,5S,6R)-2-(4-Chloro-3-methoxy-5-(4-methoxybenzyl)benzofuran-7-yl)-6-(hydroxymethyl)tetrahydro-2H-pyran-3,4,5-triol], 7.37. In the case of `N#CCc1ccc(Cc2cc([C@@H]3O[C@H](CO)[C@@H](O)[C@H](O)[C@H]3O)c3c(c2Cl)OCC3)cc1` [Example E203, 2-(4-((7-Chloro-4-((2S,3R,4R,5S,6R)-3,4,5-trihydroxy-6-(hydroxymethyl)tetrahydro-2H-pyran-2-yl)-2,3-dihydrobenzofuran-6-yl)methyl)phenyl)acetonitrile], the pIC50 is 8.74.

For the molecule `OC[C@H]1O[C@@H](c2cc(Cc3ccc(OC4COC4)cc3)c(Cl)c3c2CCO3)[C@H](O)[C@@H](O)[C@@H]1O` [Example E204, (2S,3R,4R,5S,6R)-2-(7-Chloro-6-(4-(oxetan-3-yloxy)benzyl)-2,3-dihydrobenzofuran-4-yl)-6-(hydroxymethyl)tetrahydro-2H-pyran-3,4,5-triol], the pIC50 is 8.30. For `CC(C)Oc1ccc(Cc2cc([C@@H]3O[C@H](CO)[C@@H](O)[C@H](O)[C@H]3O)c3c(c2Cl)OCC3)cc1` [Example E205, (2S,3R,4R,5S,6R)-2-(7-Chloro-6-(4-isopropoxybenzyl)-2,3-dihydrobenzofuran-4-yl)-6-(hydroxymethyl)tetrahydro-2H-pyran-3,4,5-triol] the value was 8.71; for `OC[C@H]1O[C@@H](c2cc(Cc3ccc(SC4CC4)cc3)c(Cl)c3c2CCO3)[C@H](O)[C@@H](O)[C@@H]1O` [Example E206, (2S,3R,4R,5S,6R)-2-(7-Chloro-6-(4-(cyclopropylthio)benzyl)-2,3-dihydrobenzofuran-4-yl)-6-(hydroxymethyl)tetrahydro-2H-pyran-3,4,5-triol], 8.73. The result for `COc1ccc(Cc2cc([C@@H]3O[C@H](CO)[C@@H](O)[C@H](O)[C@H]3O)c3c(c2Cl)OCC3)s1` [Example E207, (2S,3R,4R,5S,6R)-2-(7-Chloro-6-((5-methoxythiophen-2-yl)methyl)-2,3-dihydrobenzofuran-4-yl)-6-(hydroxymethyl)tetrahydro-2H-pyran-3,4,5-triol] reads 8.43; that for `CCN(CC)c1ccc(Cc2cc([C@@H]3O[C@H](CO)[C@@H](O)[C@H](O)[C@H]3O)ccc2Cl)cc1` [Example E210, (2S,3R,4R,5S,6R)-2-(4-Chloro-3-(4-(diethylamino)benzyl)phenyl)-6-(hydroxymethyl)tetrahydro-2H-pyran-3,4,5-triol], 7.05; that for `OC[C@H]1O[C@@H](c2ccc(Cl)c(Cc3ccc(N4CCOCC4)cc3)c2)[C@H](O)[C@@H](O)[C@@H]1O` [Example E211, (2S,3R,4R,5S,6R)-2-(4-Chloro-3-(4-morpholinobenzyl)phenyl)-6-(hydroxymethyl)tetrahydro-2H-pyran-3,4,5-triol], 8.04.

As for `CCOc1ccc(Cc2cc([C@@H]3O[C@H](CO)[C@@H](O)[C@H](O)[C@H]3O)c3c(c2Cl)N(C)CCO3)cc1` [Example E213, (2S,3R,4R,5S,6R)-2-(5-Chloro-6-(4-ethoxybenzyl)-4-methyl-3,4-dihydro-2H-benzo[b][1,4]oxazin-8-yl)-6-(hydroxymethyl)tetrahydro-2H-pyran-3,4,5-triol], the pIC50 was 8.21. The result for `CCc1ccc(Cc2cc([C@@H]3O[C@H](CO)[C@@H](O)[C@H](O)[C@H]3O)c3c(c2Cl)NCCO3)cc1` [Example E214, (2S,3R,4R,5S,6R)-2-(5-Chloro-6-(4-ethylbenzyl)-3,4-dihydro-2H-benzo[b][1,4]oxazin-8-yl)-6-(hydroxymethyl)tetrahydro-2H-pyran-3,4,5-triol] reads 8.50. The result for `CCc1ccc(Cc2cc([C@@H]3O[C@H](CO)[C@@H](O)[C@H](O)[C@H]3O)c3c(c2Cl)C(C)CO3)cc1` (stereo partly drawn) [Example E215, (2S,3R,4R,5S,6R)-2-(4-Chloro-5-(4-ethylbenzyl)-3-methyl-2,3-dihydrobenzofuran-7-yl)-6-(hydroxymethyl)tetrahydro-2H-pyran-3,4,5-triol] reads 9.05; that for `COc1ccc(Cc2cc([C@@H]3O[C@H](CO)[C@@H](O)[C@H](O)[C@H]3O)c3c(c2Cl)C(C)CO3)cc1` (stereo partly drawn) [Example E216, (2S,3R,4R,5S,6R)-2-(4-Chloro-5-(4-methoxybenzyl)-3-methyl-2,3-dihydrobenzofuran-7-yl)-6-(hydroxymethyl)tetrahydro-2H-pyran-3,4,5-triol], 8.91; that for `CCc1ccc(Cc2cc([C@@H]3O[C@H](CO)[C@@H](O)[C@H](O)[C@H]3O)c3c(c2Cl)C(C)(C)CO3)cc1` [Example E217, (2S,3R,4R,5S,6R)-2-(4-Chloro-5-(4-ethylbenzyl)-3,3-dimethyl-2,3-dihydrobenzofuran-7-yl)-6-(hydroxymethyl)tetrahydro-2H-pyran-3,4,5-triol], 8.75.
